Experimental data taken from patent publication US12441693B2, “Targeting STAT sumoylation to enhance immune responses” (THE GEORGE WASHINGTON UNIVERSITY, priority 2018, dated 2025).
Entries after “also recorded” stand apart in the source; their conditions may differ.

How the values were obtained:
[1] = test system: CD4 T cells; experiment: Expansion of activated CD4 T cells with IL-2; format: cell-based, human; settings: activated in vitro, IL-2, vs DMSO
[2] = test system: HIV-infected cultured TCM cells; experiment: Killing of HIV-infected cultured TCM cells by expanded autologous NK cells; format: cell-based, human; settings: autologous NK cells expanded with IL-2 and HODHBt
Description: As for CD8 T cells, STATS play an important role in the expansion of NK cells. As such, it was hypothesized that inhibiting STAT SUMOylation may enhance the expansion of NK cells. This has important implications for adoptive cell immunotherapies as NK cells are increasingly becoming an attractive alternative to T cell therapies. In order to address whether inhibiting STAT SUMOylation may enhance NK proliferation in vitro, NK cells were isolated from two human HIV-negative donors and expanded using Miltenyi Biotec NK MACS Medium in the presence of 500 IU/ml of IL-2 and in the presence or absence of HODHBt.

[3] = test system: STAT5, STAT1, STAT3; experiment: Western blot of phosphorylated STATs in CD8 T cells; format: cell-based, human
Protocol: (§1) To address whether SUMOylation controls STAT activation in human CD8 T cells, polyclonally activated CD8 T cells were cultured with IL-2 in the presence or absence of HODHBt and levels of phosphorylated STATs were measured by Western blot. […] Proliferation of CD8 T cells is dependent on the activation and phosphorylation of STAT5.
In general, samples are prepared and loaded on to a gel and during the electrophoresis the negatively charged proteins move toward the positively charged anode. In order to further analyze the proteins, they are transferred onto a membrane in a procedure called blotting. After the transfer, the membrane is blocked in order to prevent unwanted membrane-protein interaction in the following steps. To visualize the protein of interest the membrane is commonly first probed using a primary protein-specific antibody followed by a labeled secondary antibody used for detection. An image is taken of the membrane and the result is analyzed.

[4] = test system: CD8 T cells; experiment: Expansion of polyclonally activated CD8 T cells with IL-2; format: cell-based, human; settings: IL-2, vs DMSO/untreated
Protocol: For these tests, human CD4 and CD8 T cells were activated in vitro and expanded with interleukin-2 (IL-2) in the presence of DMSO (control vehicle) or HODHBt. […] Some immunotherapy strategies rely on the in vitro expansion of the own patient CD4 and CD8 T cells specific against a tumoral or a viral antigen.
as §1

[5] = test system: STAT5; settings: Bosque et al., Cell Rep. 2017; cited from earlier work
[6] = test system: K562; experiment: NK cell killing of K562 cells, E:T 1:1, 4 hours; format: cell-based, human
Protocol: It was therefore hypothesized that inhibiting STAT SUMOylation may enhance the ability of IL-15 stimulated NK cells to clear the HIV latent reservoir. To test the hypothesis, NK cells were treated with DMSO, IL-15-stimulated, treated with HODHBt or IL-15-stimulated and treated with HODHBt. Cells were then tested in their ability to kill the erythroleukemia cell line K562, which lack MHC-I. In an experiment, the NK cells from two donors were co-cultured with K562 at an E:T ratio of 1:1 for 4 hours (FIG. 19A). NK cells were pretreated with IL-15, HODHBt, or a combination of both.

In the case of `O=c1c2ccccc2nnn1O` [HODHBt], the “expansion of CD4 T cells” value [1] is reported as “increased expansion”, the “killing of HIV-infected cultured TCM cells by NK cells expanded with compound” value [2] is reported as “as well as HIV-infected cultured TCM cells from the same donor” and the “phosphorylation of STAT1 and STAT3 in CD8 T cells” value ([3]; HODHBt alone) is reported as “increased the phosphorylation levels of both STAT1 and STAT3”. For the same molecule, the “phosphorylation of STAT5 in CD8 T cells” value ([3]; after IL-2 treatment) was “increased the levels of phosphorylation of STAT5 after IL-2 treatment”, the “phosphorylation of STAT1 and STAT3 in CD8 T cells” value ([3]; with IL-2, vs IL-2) was “enhanced those induced by IL-2” and the “expansion of CD8 T cells” value [4] was “increased expansion; also recorded: enhanced the expansion of polyclonally activated CD8 T in 5 human donors”. The “phosphorylation and transcriptional activity of STAT5” value [5] was “enhance phosphorylation and the transcriptional activity of STAT5”, the “killing of K562 by NK cells expanded with compound” value ([6]; NK cells expanded with IL-2 and HODHBt) was “retained the ability to kill the target cell line K562” and the “killing of K562 by pretreated NK cells” value ([6]; NK cells pretreated with combination of IL-15 and HODHBt, E:T 1:1, 4 hours) was “drastic increase in the cytolytic capacity of NK cells”.
